Experiment: near infrared fluorescent spectral properties
Format: physicochemical
Excerpt: Some of these compounds in formula 1-8 and the compounds shown in Scheme 1 have variable water solubility, near infrared fluorescent spectral properties suitable for in-vivo tissue imaging (e.g. MHI-148 has λmax absorption 780 nm and high intensity λmax emission 800 nm (FIG. 1)), and have been tested to have similar activities in near infrared fluorescent imaging of tumor cells and inhibiting tumor cell growth in vitro, and permit selective destruction of any gold labeled cancer cells via radiofrequency treatment. The solubility of the labeled gold particles may be controlled by the dye molecules attached to the surface of gold particles or by additional solubilization groups attached to the gold particle surface as it is described by the literature or by prior art. Biodistribution of these gold particles are determined by the molecules attached to the gold particle surface and particle size.

- λmax absorption: 780 nm
- λmax emission (high intensity): 800 nm
SMILES: CC1(C)C(/C=C/C2=C(Cl)C(=C/C=C3\Cc4ccccc4N3CCCCCC(=O)O)/CCC2)=[N+](CCCCCC(=O)O)c2ccccc21 [MHI-148]
